Experimental findings from ChEMBL document CHEMBL1122789, “Synthesis and biological activity of structural analogues of the anticancer benzophenanthridine alkaloid nitidine chloride” (1984) are described below.

Calls of active or inactive are those of the source. The rule behind the calls is not given here.

In experiment [1] the test system is P388. Briefly: Evaluated for anticancer activity against P388 lymphocytic leukemia system at a dose of 200 mg/Kg; Inactive. The class given is functional. The conditions noted are these: Mus musculus.
Experiment [2] relates to KB. Briefly: Evaluated in vitro for cytotoxicity against KB cell culture system. Format: functional. As to conditions: Homo sapiens, read-out: ED50 (the source's name).
The test system of experiment [3] is P388. Briefly: Evaluated for percentage test/control (%T/C) in survival tumor system against P388 lymphocytic leukemia. The class given is functional, Mus musculus.
Experiment [4] deals with B16. The experiment in a line: Evaluated for percentage test/control (%T/C) in survival tumor system against B16 melanocarcinoma at dose 20 mg/Kg. The class given is functional, Mus musculus.
The test system of experiment [5] is L1210. Briefly: Evaluated for percentage test/control (%T/C) in survival tumor system against L1210 lymphoid leukemia. Format: functional, Mus musculus.

For the molecule `COc1cc2cc(-c3ccc4c(c3)OCO4)[n+](C)cc2cc1OC.[Cl-]`, the Anticancer activity result in experiment [1] is “inactive”. For the same molecule, in experiment [2], the EC50 came to 5 ng/mL.

What is called T/C is the ratio of treated to control. Take `COc1cc2c(ccc3c4cc(OC)c(OC)cc4c[n+](C)c23)cc1O.[Cl-]` [FAGARONINE]: in experiment [3], the T/C is 265%.

Turning to `COc1cc2c[n+](C)c3c4cc5c(cc4ccc3c2cc1OC)OCO5.[Cl-]` [NITIDINE CHLORIDE], the T/C in experiment [4] is reported as 141%; in experiment [3] it was 209%; in experiment [5] it was 136%.
